Like-named read-outs stand apart in the source and are kept apart here.
What was measured:
CSNK1G1 = target: T1, CSNK1G1 (Homo sapiens, UniProt Q9HCP0); experiment: KINOMEScan; type: binding; parameters: dose or concentration left out as unconfirmed
T1 construct: purchased DiscoverX KINOMEscan

CSNK1G2 = target: T2, CSNK1G2 (Homo sapiens, UniProt P78368); experiment: KINOMEScan; type: binding; parameters: dose or concentration left out as unconfirmed
T2 construct: purchased DiscoverX KINOMEscan

MST1 = target: T3, MST1 (Homo sapiens, UniProt Q13043); experiment: KINOMEScan; type: binding; parameters: dose or concentration left out as unconfirmed
T3 construct: purchased DiscoverX KINOMEscan

PFTK1 = target: T4, PFTK1 (Homo sapiens, UniProt O94921); experiment: KINOMEScan; type: binding; parameters: dose or concentration left out as unconfirmed
T4 construct: purchased DiscoverX KINOMEscan

SIK = target: T5, SIK (Homo sapiens, UniProt P57059); experiment: KINOMEScan; type: binding; parameters: dose or concentration left out as unconfirmed
T5 construct: purchased DiscoverX KINOMEscan

KIT A829P = KIT A829P (Homo sapiens, UniProt P10721, A829P); experiment: KIT auto-phosphorylation in transformed BaF3 cells
KIT wt [1] = target: T6, KIT wt (Homo sapiens, UniProt P10721); experiment: KIT auto-phosphorylation in parental Colo320DM cells; type: cell-based; parameters: Colo320DM cells which express wt KIT kinase; endogenous in cells; host or cells: Colo320DM, SCF-stimulated
Description: (§1) In order to better define CHMFL-KIT-031’s inhibitory effect against KIT V559D mutant, we then tested it with purified KIT wt/V559D kinase protein by ADP-Glo assay (Figure 2A). […] We also transformed and overexpressed KIT V559D transiently into Colo320DM cells which express wt KIT kinase and tested CHMFL-KIT-031’s inhibitory effects for the auto-phosphorylation of KIT Y703, 719 and Y823 sites.
Target sequence in this assay (P10721 26-976): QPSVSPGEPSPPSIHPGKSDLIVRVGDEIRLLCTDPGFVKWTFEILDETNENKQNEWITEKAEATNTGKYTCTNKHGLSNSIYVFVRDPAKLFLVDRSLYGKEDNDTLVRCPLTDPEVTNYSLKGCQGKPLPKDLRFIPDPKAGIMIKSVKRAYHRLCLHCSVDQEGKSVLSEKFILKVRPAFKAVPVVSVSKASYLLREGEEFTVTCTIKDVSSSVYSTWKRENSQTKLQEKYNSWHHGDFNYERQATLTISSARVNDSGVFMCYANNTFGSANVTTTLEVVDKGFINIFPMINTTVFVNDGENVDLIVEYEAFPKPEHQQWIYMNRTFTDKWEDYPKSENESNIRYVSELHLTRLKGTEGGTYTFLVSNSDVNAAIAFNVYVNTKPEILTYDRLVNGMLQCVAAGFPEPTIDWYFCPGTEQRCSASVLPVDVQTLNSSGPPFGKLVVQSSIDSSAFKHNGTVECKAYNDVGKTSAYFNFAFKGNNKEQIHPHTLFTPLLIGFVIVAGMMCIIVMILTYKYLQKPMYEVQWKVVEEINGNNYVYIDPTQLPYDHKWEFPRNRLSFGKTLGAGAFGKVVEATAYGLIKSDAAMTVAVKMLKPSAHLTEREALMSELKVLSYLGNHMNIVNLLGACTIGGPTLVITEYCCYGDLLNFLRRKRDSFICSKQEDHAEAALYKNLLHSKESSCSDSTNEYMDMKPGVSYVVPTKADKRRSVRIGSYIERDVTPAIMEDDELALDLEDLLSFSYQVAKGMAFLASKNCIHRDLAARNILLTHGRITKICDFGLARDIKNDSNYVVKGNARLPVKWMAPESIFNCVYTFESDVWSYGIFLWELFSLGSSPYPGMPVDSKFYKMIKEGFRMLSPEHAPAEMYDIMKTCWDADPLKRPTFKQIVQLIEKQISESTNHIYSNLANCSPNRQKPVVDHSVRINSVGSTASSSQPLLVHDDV

KIT wt [2] = target: T6, KIT wt; experiment: KIT auto-phosphorylation in transformed BaF3 cells; type: cell-based; conditions: 2h
Target sequence in this assay (P10721 546-937 limits assumed): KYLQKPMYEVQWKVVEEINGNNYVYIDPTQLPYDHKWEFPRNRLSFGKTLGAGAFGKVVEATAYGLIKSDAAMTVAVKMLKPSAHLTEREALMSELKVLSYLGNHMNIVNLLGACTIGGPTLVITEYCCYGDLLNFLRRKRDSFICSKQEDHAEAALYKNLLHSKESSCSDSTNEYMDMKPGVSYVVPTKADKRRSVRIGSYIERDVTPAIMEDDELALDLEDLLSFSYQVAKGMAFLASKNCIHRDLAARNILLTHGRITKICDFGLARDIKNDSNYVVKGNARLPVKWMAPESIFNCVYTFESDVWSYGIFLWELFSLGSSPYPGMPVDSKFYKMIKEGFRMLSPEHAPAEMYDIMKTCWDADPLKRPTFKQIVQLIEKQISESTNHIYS

KIT V559D/V654A = KIT V559D/V654A (Homo sapiens, UniProt P10721, V559D/V654A); experiment: KIT auto-phosphorylation in transformed BaF3 cells; conditions: 2h
MET(Y1235D) = target: T7, MET(Y1235D) (Homo sapiens, UniProt P08581, Y1235D); experiment: KINOMEScan; type: binding; parameters: dose or concentration left out as unconfirmed
T7 construct: purchased DiscoverX KINOMEscan

PIP5K1C = target: T8, PIP5K1C (Homo sapiens, UniProt O60331); experiment: KINOMEScan; type: binding; parameters: dose or concentration left out as unconfirmed
T8 construct: purchased DiscoverX KINOMEscan

[3] = target: T9, RSK4(Kin.Dom.2-C-terminal) (Homo sapiens, UniProt Q9UK32); experiment: KINOMEScan; type: binding
T9 construct: RSK4(Kin.Dom.2-C-terminal); purchased DiscoverX KINOMEscan

EGFR(L747-T751del,Sins) = experiment: KINOMEScan; type: binding; parameters: dose or concentration left out as unconfirmed
KIT V559D = KIT V559D (Homo sapiens, UniProt P10721, V559D); experiment: KIT auto-phosphorylation in KIT V559D overexpressed Colo320DM cells; type: cell-based; parameters: expressed in transfected cells; host or cells: Colo320DM (transient)
Description: as §1
KIT-V559D kinase domain coding sequence was inserted into a pMSCV puro vector (Clontech) that was modified by inserting a 3×FLAG sequence at the 3’ end of the multicloning sites. The vector was transiently transfected into Colo320DM cells with TransIN™EL transfection reagent.

DCAMKL1 = target: T10, DCAMKL1 (Homo sapiens, UniProt O15075); experiment: KINOMEScan; type: binding; parameters: dose or concentration left out as unconfirmed
T10 construct: purchased DiscoverX KINOMEscan

p38-alpha = target: T11, p38-alpha (Homo sapiens, UniProt Q16539); experiment: KINOMEScan; type: binding; parameters: dose or concentration left out as unconfirmed
T11 construct: purchased DiscoverX KINOMEscan
T11 sequence (Q16539 whole entry): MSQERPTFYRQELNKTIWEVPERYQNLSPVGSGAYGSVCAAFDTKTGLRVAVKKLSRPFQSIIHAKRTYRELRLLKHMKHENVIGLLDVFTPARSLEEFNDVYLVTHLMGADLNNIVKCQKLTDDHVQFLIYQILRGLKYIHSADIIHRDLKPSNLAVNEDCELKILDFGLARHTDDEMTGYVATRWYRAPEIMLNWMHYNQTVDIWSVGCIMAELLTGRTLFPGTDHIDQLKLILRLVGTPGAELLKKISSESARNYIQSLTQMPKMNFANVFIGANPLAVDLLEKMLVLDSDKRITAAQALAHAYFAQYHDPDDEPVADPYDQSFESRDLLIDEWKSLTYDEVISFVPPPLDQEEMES

Chain of KIT A829P (P10721 26-976 A829P): as the sequence (P10721 26-976) above, with A804P counted along it
Chain of KIT V559D/V654A (P10721 546-976 V559D/V654A): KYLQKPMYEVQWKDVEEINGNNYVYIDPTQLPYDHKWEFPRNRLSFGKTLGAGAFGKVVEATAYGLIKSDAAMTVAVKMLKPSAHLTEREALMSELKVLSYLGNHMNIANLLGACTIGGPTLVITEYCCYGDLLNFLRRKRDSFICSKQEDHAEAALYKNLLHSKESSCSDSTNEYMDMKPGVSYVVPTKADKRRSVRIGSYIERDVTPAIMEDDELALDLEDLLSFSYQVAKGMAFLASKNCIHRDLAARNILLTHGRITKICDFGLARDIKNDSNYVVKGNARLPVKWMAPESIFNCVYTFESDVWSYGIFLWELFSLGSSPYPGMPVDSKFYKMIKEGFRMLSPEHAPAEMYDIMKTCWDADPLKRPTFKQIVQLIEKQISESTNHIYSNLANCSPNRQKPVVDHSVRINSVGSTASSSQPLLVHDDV
Chain of KIT V559D (P10721 546-976 V559D limits assumed): as the sequence (P10721 546-976 V559D/V654A) above, with A109V counted along it
T1 sequence (Q9HCP0 whole entry): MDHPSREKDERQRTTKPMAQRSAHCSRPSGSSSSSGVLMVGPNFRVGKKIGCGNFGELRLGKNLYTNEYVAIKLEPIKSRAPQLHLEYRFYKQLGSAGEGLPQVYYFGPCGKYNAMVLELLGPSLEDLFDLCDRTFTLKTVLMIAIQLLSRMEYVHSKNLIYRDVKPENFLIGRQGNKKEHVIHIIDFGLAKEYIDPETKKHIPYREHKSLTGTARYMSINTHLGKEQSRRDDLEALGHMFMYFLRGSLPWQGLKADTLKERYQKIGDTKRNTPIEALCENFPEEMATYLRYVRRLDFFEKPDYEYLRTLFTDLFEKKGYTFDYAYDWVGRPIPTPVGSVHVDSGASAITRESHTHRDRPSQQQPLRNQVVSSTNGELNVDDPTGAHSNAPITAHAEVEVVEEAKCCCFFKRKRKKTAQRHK
T2 sequence (P78368 whole entry): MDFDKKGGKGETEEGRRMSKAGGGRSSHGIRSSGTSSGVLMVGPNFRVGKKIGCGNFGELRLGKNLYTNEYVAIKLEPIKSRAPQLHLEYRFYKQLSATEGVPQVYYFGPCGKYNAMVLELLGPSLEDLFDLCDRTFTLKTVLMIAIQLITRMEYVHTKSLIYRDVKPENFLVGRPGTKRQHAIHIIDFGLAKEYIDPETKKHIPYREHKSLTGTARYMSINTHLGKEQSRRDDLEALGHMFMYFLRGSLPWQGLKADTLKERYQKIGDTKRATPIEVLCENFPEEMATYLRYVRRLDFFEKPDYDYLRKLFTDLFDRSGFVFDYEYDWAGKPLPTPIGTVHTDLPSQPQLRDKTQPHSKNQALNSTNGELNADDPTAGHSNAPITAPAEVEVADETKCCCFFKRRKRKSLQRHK
T4 sequence (O94921 whole entry): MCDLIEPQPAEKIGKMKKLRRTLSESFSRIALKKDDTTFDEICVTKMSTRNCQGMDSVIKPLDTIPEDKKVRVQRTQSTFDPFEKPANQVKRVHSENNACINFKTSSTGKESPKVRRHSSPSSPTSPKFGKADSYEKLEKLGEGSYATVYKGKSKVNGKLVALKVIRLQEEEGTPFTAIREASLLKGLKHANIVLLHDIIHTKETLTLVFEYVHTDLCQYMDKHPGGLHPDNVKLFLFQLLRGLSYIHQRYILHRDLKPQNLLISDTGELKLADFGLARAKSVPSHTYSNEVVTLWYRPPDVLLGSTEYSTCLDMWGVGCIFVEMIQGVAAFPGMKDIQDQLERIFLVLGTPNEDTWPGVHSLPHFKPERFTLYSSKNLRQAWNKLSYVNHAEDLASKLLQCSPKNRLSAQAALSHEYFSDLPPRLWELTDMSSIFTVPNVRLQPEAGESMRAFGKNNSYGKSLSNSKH
T10 sequence (O15075 whole entry): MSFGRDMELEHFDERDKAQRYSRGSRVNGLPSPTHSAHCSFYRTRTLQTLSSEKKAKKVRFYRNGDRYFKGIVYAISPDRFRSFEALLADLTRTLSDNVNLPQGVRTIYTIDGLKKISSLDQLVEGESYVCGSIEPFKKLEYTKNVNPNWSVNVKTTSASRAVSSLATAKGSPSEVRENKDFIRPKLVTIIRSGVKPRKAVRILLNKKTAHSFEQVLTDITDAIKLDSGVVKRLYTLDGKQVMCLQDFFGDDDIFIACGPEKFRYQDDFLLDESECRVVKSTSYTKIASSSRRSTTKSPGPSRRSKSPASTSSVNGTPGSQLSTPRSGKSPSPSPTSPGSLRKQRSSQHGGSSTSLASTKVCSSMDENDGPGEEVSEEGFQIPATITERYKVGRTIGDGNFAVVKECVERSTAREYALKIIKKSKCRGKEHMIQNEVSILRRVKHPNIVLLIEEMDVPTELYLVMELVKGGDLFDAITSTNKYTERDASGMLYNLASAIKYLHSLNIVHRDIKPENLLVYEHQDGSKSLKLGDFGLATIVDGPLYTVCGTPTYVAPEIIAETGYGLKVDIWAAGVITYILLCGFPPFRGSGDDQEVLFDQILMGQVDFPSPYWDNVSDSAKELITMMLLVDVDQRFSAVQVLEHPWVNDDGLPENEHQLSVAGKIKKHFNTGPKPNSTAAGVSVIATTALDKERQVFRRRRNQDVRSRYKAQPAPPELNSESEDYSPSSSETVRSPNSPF
T9 sequence (Q9UK32 426-683 limits assumed): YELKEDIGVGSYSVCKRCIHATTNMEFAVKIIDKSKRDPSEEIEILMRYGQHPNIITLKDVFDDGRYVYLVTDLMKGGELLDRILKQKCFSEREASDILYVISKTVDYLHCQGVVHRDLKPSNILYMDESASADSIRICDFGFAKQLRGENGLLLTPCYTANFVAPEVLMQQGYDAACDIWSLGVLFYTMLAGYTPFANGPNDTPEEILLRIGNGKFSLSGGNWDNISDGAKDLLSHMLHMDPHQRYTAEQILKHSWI

COc1cc(C(=O)NCC(=O)Nc2ccc3c(/C=C/c4ccccn4)n[nH]c3c2)cc(OC)c1OC [CHMFL-KIT-031]
KINOMEScan profiling value (CSNK1G1): 100 | KINOMEScan profiling value (CSNK1G2): 100 | KINOMEScan profiling value (MST1): 89 | KINOMEScan profiling value (PFTK1): 100 | KINOMEScan profiling value (SIK): 100 | EC50 (KIT A829P): > 10 µM | EC50 (KIT A829P; read-out: EC50 pY719 auto-phosphorylation, KIT A829P transformed BaF3 cells, 2h): > 10 µM | EC50 (KIT A829P; read-out: EC50 pY823 auto-phosphorylation, KIT A829P transformed BaF3 cells, 2h): > 10 µM | EC50 (KIT wt [1]; COLO 320DM (KIT wt), SCF stimulation, read-out: EC50 P-CKIT Y719): 5.62 µM | EC50 (KIT wt [1]; COLO 320DM (KIT wt), SCF stimulation, read-out: EC50 P-CKIT Y823): 9.7 µM | EC50 (KIT wt [1]; in cell, KIT wt, read-out: EC50 pY703): 2 µM | EC50 (KIT wt [2]; read-out: EC50 pY703 auto-phosphorylation): 1.9 µM | EC50 (KIT wt [2]; read-out: EC50 pY719 auto-phosphorylation): 8.2 µM | EC50 (KIT wt [2]; read-out: EC50 pY823 auto-phosphorylation): 6.9 µM | EC50 (KIT V559D/V654A; EC50 pY703 auto-phosphorylation): 5.6 µM | EC50 (KIT V559D/V654A; EC50 pY719 auto-phosphorylation): 0.863 µM | EC50 (KIT V559D/V654A; EC50 pY823 auto-phosphorylation): 5.4 µM | KINOMEScan profiling value (MET(Y1235D)): 100 | KINOMEScan profiling value (PIP5K1C): 71 | KINOMEScan profiling value [3]: 100 | KINOMEScan profiling value (EGFR(L747-T751del,Sins)): 100 | EC50 (KIT V559D; COLO 320DM-KIT-V559D, read-out: EC50 P-CKIT Y719): 0.239 µM | EC50 (KIT V559D; COLO 320DM-KIT-V559D, read-out: EC50 P-CKIT Y823): 0.147 µM | EC50 (KIT V559D; Colo320DM cells overexpressing KIT V559D, range over the sites, read-out: EC50 phosphorylation of KIT V559D mutant (Y703, 719 and Y823 sites)): 0.176 to 0.339 µM | selectivity compared to KIT wt at the corresponding phosphorylation sites (KIT V559D; Colo320DM cells, EC50): over 10 fold | EC50 (KIT V559D; in cell, KIT V559D, read-out: EC50 pY703): 0.176 µM | KINOMEScan profiling value (DCAMKL1): 100 | KINOMEScan profiling value (p38-alpha): 94

Source: article PMC5762309 (Oncotarget, 2017)
